Holding throughout (assay type): in vivo
Data set [1] concerns Chenopodium album. The experiment in a line: Test Example 2 upland soil treatment. Conditions: Table 5, upland soil treatment, index 0-5. Summed up: (§1)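 Seeds are sown into upland soil and covered by roughly 1 cm of soil, then the compound, formulated as a wettable powder and diluted with water, is applied uniformly to the soil surface the following day at 1 kg active ingredient per hectare. Herbicidal effect or phytotoxicity is graded 0 to 5 after 21 days.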

Data set [2] relates to Digitaria adscendens. The data set can be described thus: Test Example 2 upland soil treatment. The following applies: Table 5, upland soil treatment, index 0-5. Summed up:
as §1

Data set [3] has as its system Setaria viridis. The experiment in a line: Test Example 2 upland soil treatment. The following applies: Table 5, upland soil treatment, index 0-5. A digest of the protocol:
as §1

Data set [4] has as its system Stellaria media. The experiment in a line: Test Example 2 upland soil treatment. The following applies: Table 5, upland soil treatment, index 0-5. A digest of the protocol:
as §1

Data set [5] relates to wheat (Triticum aestivum). The data set can be described thus: Test Example 1 upland field foliage treatment, crop phytotoxicity. Conditions: Table 4, upland field foliage treatment, index 0-5. Summed up:
(§2)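 Post-emergence foliar spray, 1 kg a.i./ha, wettable powder diluted in water, applied 14 d after sowing in upland soil. Rating 21 d post-application, 0–5 scale: 5 ≥90%, 4 70–<90%, 3 50–<70%, 2 30–<50%, 1 10–<30%, 0 <10% effect or injury.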

For data set [6], the system named is soybean (Glycine max). Described as above. The following applies: Table 4, upland field foliage treatment, index 0-5. Summed up: as §2
For a further data set, the system named is Rice (Oryza sativa). The experiment in a line: Test Example 3 paddy field treatment, crop phytotoxicity. The following applies: paddy field treatment, transplanted rice Koshihikari, wettable powder, active ingredient 1 kg per hectare, 21st day after the dropping, index 0-5. Summed up: (§3)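 Scoring used a 0–5 scale of herbicidal effect or phytotoxicity, from <10% to ≥90%, taken 21 days after treatment. Treatment was 1 kg a.i./ha as diluted wettable powder dripped onto 4 cm-deep flooded pots sown with the weeds, 10 days after transplanting two-leaf Koshihikari rice.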

Data set [7] relates to wheat (Triticum aestivum). The data set can be described thus: Test Example 2 upland soil treatment, crop phytotoxicity. The following applies: Table 5, upland soil treatment, index 0-5. Summed up: as §1
The test system of data set [8] is soybean (Glycine max). The data set is described as above. Conditions: Table 5, upland soil treatment, index 0-5. Summed up: as §1
In data set [9] the test system is Chenopodium album. The data set can be described thus: Test Example 1 upland field foliage treatment. Conditions: Table 4, upland field foliage treatment, index 0-5. A digest of the protocol:
as §2

In data set [10] the test system is Digitaria adscendens. The data set can be described thus: Test Example 1 upland field foliage treatment. Conditions: Table 4, upland field foliage treatment, index 0-5. Summed up: as §2
Data set [11] deals with Setaria viridis. The experiment in a line: Test Example 1 upland field foliage treatment. The following applies: Table 4, upland field foliage treatment, index 0-5. A digest of the protocol: as §2
The subject of data set [12] is Stellaria media. The data set can be described thus: Test Example 1 upland field foliage treatment. The following applies: Table 4, upland field foliage treatment, index 0-5. A digest of the protocol: as §2
The test system of the next data set is Monochoria vaginalis. The experiment in a line: Test Example 3 paddy field treatment. Conditions: paddy field treatment, wettable powder, active ingredient 1 kg per hectare, 21st day after the dropping, index 0-5. A digest of the protocol:
as §3

The test system of the next data set is Ammannia multiflora. The experiment in a line: Test Example 3 paddy field treatment. Conditions: paddy field treatment, wettable powder, active ingredient 1 kg per hectare, 21st day after the dropping, index 0-5. Summed up:
as §3

A further data set relates to Scirpus juncoides. The experiment in a line: Test Example 3 paddy field treatment. The following applies: paddy field treatment, wettable powder, active ingredient 1 kg per hectare, 21st day after the dropping, index 0-5. Summed up: as §3
The subject of a further data set is Echinochloa crusgalli. The data set can be described thus: Test Example 3 paddy field treatment. Conditions: paddy field treatment, wettable powder, active ingredient 1 kg per hectare, 21st day after the dropping, index 0-5. A digest of the protocol:
as §3

Consider `C=CCNC(=O)C(Cn1cc(C)c(-c2ccccc2)n1)=NOC` [Compound 26], for which the “Herbicidal activity CA: Chenopodium album” value (“Herbicidal activity CA” below) with Chenopodium album [1] is recorded as 5 (herbicidal effect of not less than 90%, or phytotoxicity of 90% or more); in the data set with Chenopodium album [9], 5 (herbicidal effect of not less than 90%, or phytotoxicity of 90% or more). Besides, the “Herbicidal activity DA: Digitaria adscendens” value (“Herbicidal activity DA” below) with Digitaria adscendens [2] was 5 (herbicidal effect of not less than 90%, or phytotoxicity of 90% or more); in the data set on Digitaria adscendens [10], 5 (herbicidal effect of not less than 90%, or phytotoxicity of 90% or more). Besides, the “Herbicidal activity SV: Setaria viridis” value in the data set with Setaria viridis [3] was 4 (herbicidal effect of not less than 70% and less than 90%, or phytotoxicity of 70% or more and less than 90%); in the data set on Setaria viridis [11], 4 (herbicidal effect of not less than 70% and less than 90%, or phytotoxicity of 70% or more and less than 90%). In addition, the “Herbicidal activity SM: Stellaria media” value is 5 (herbicidal effect of not less than 90%, or phytotoxicity of 90% or more) with Stellaria media [4] and 5 (herbicidal effect of not less than 90%, or phytotoxicity of 90% or more) with Stellaria media [12]. In addition, the “Herbicidal activity (phytotoxicity) TA: Wheat (Triticum aestivum)” value (from here on “Herbicidal activity (phytotoxicity) TA”) was 0 (herbicidal effect of not less than 0% and less than 10%, or phytotoxicity of 0% or more and less than 10%) in data set [5]; 0 (herbicidal effect of not less than 0% and less than 10%, or phytotoxicity of 0% or more and less than 10%) in data set [7]. The “Herbicidal activity (phytotoxicity) GM: Soybean (Glycine max)” value (“Herbicidal activity (phytotoxicity) GM” for short) was 0 (herbicidal effect of not less than 0% and less than 10%, or phytotoxicity of 0% or more and less than 10%) in the data set on soybean (Glycine max) [6]; 0 (herbicidal effect of not less than 0% and less than 10%, or phytotoxicity of 0% or more and less than 10%) in the data set with soybean (Glycine max) [8]. Also, the “Herbicidal activity OS (phytotoxicity to rice)” value (“Herbicidal activity OS” for short) in the data set on Rice (Oryza sativa) was 0 (herbicidal effect of not less than 0% and less than 10%, or phytotoxicity of 0% or more and less than 10%). The “Herbicidal activity MV” value with Monochoria vaginalis is on record as 5 (herbicidal effect of not less than 90%, or phytotoxicity of 90% or more). Further, the “Herbicidal activity AM” value with Ammannia multiflora is listed as 5 (herbicidal effect of not less than 90%, or phytotoxicity of 90% or more). Further, the “Herbicidal activity SJ” value with Scirpus juncoides is given as 5 (herbicidal effect of not less than 90%, or phytotoxicity of 90% or more). In addition, the “Herbicidal activity EC” value in the data set with Echinochloa crusgalli is 5 (herbicidal effect of not less than 90%, or phytotoxicity of 90% or more).
On to `C#CCNC(=O)C(Cn1cc(C)c(-c2ccccc2)n1)=NOC` [Compound 27], for which the “Herbicidal activity CA” value was 5 (herbicidal effect of not less than 90%, or phytotoxicity of 90% or more) with Chenopodium album [1] and 5 (herbicidal effect of not less than 90%, or phytotoxicity of 90% or more) in the data set on Chenopodium album [9]. Besides, the “Herbicidal activity DA” value in the data set with Digitaria adscendens [2] is given as 5 (herbicidal effect of not less than 90%, or phytotoxicity of 90% or more); with Digitaria adscendens [10] it was 5 (herbicidal effect of not less than 90%, or phytotoxicity of 90% or more). For the same compound, the “Herbicidal activity SV: Setaria viridis” value was 5 (herbicidal effect of not less than 90%, or phytotoxicity of 90% or more) in the data set on Setaria viridis [3] and 5 (herbicidal effect of not less than 90%, or phytotoxicity of 90% or more) with Setaria viridis [11]. The “Herbicidal activity SM: Stellaria media” value was 5 (herbicidal effect of not less than 90%, or phytotoxicity of 90% or more) with Stellaria media [4] and 5 (herbicidal effect of not less than 90%, or phytotoxicity of 90% or more) in the data set with Stellaria media [12]. Besides, the “Herbicidal activity (phytotoxicity) TA” value in data set [5] was 0 (herbicidal effect of not less than 0% and less than 10%, or phytotoxicity of 0% or more and less than 10%); in data set [7], 0 (herbicidal effect of not less than 0% and less than 10%, or phytotoxicity of 0% or more and less than 10%). Also, the “Herbicidal activity (phytotoxicity) GM” value in the data set with soybean (Glycine max) [6] was 0 (herbicidal effect of not less than 0% and less than 10%, or phytotoxicity of 0% or more and less than 10%); in the data set on soybean (Glycine max) [8], 1 (herbicidal effect of not less than 10% and less than 30%, or phytotoxicity of 10% or more and less than 30%). The “Herbicidal activity OS” value in the data set on Rice (Oryza sativa) is 0 (herbicidal effect of not less than 0% and less than 10%, or phytotoxicity of 0% or more and less than 10%). Also, the “Herbicidal activity MV” value in the data set with Monochoria vaginalis is 5 (herbicidal effect of not less than 90%, or phytotoxicity of 90% or more). Also, the “Herbicidal activity AM” value in the data set on Ammannia multiflora is reported as 5 (herbicidal effect of not less than 90%, or phytotoxicity of 90% or more). In addition, the “Herbicidal activity SJ” value in the data set on Scirpus juncoides is recorded as 5 (herbicidal effect of not less than 90%, or phytotoxicity of 90% or more). The “Herbicidal activity EC” value in the data set on Echinochloa crusgalli is listed as 5 (herbicidal effect of not less than 90%, or phytotoxicity of 90% or more).
Turning to `CON=C(Cn1cc(C)c(-c2ccccc2)n1)C(=O)NCc1ccccc1` [Compound 30], the “Herbicidal activity CA” value is 4 (herbicidal effect of not less than 70% and less than 90%, or phytotoxicity of 70% or more and less than 90%) with Chenopodium album [1]; 4 (herbicidal effect of not less than 70% and less than 90%, or phytotoxicity of 70% or more and less than 90%) in the data set with Chenopodium album [9]. The “Herbicidal activity DA” value in the data set on Digitaria adscendens [2] was 3 (herbicidal effect of not less than 50% and less than 70%, or phytotoxicity of 50% or more and less than 70%); in the data set with Digitaria adscendens [10], 4 (herbicidal effect of not less than 70% and less than 90%, or phytotoxicity of 70% or more and less than 90%). In addition, the “Herbicidal activity SV: Setaria viridis” value in the data set with Setaria viridis [3] is 4 (herbicidal effect of not less than 70% and less than 90%, or phytotoxicity of 70% or more and less than 90%); in the data set with Setaria viridis [11] it was 3 (herbicidal effect of not less than 50% and less than 70%, or phytotoxicity of 50% or more and less than 70%). The “Herbicidal activity SM: Stellaria media” value in the data set with Stellaria media [4] was 3 (herbicidal effect of not less than 50% and less than 70%, or phytotoxicity of 50% or more and less than 70%); in the data set on Stellaria media [12], 3 (herbicidal effect of not less than 50% and less than 70%, or phytotoxicity of 50% or more and less than 70%). Besides, the “Herbicidal activity (phytotoxicity) TA” value in data set [5] is 0 (herbicidal effect of not less than 0% and less than 10%, or phytotoxicity of 0% or more and less than 10%); in [7], 0 (herbicidal effect of not less than 0% and less than 10%, or phytotoxicity of 0% or more and less than 10%). Further, the “Herbicidal activity (phytotoxicity) GM” value in the data set on soybean (Glycine max) [6] was 0 (herbicidal effect of not less than 0% and less than 10%, or phytotoxicity of 0% or more and less than 10%); in the data set on soybean (Glycine max) [8], 0 (herbicidal effect of not less than 0% and less than 10%, or phytotoxicity of 0% or more and less than 10%). In addition, the “Herbicidal activity OS” value in the data set with Rice (Oryza sativa) was 0 (herbicidal effect of not less than 0% and less than 10%, or phytotoxicity of 0% or more and less than 10%). In addition, in the data set on Monochoria vaginalis, the “Herbicidal activity MV” value is 5 (herbicidal effect of not less than 90%, or phytotoxicity of 90% or more). Moreover, the “Herbicidal activity AM” value with Ammannia multiflora is 4 (herbicidal effect of not less than 70% and less than 90%, or phytotoxicity of 70% or more and less than 90%). The “Herbicidal activity SJ” value in the data set with Scirpus juncoides is 4 (herbicidal effect of not less than 70% and less than 90%, or phytotoxicity of 70% or more and less than 90%). The “Herbicidal activity EC” value in the data set on Echinochloa crusgalli was 4 (herbicidal effect of not less than 70% and less than 90%, or phytotoxicity of 70% or more and less than 90%).

The record behind these values is patent US7192906B2, “Substituted pyrazole derivatives, production process thereof, and herbicide compositions containing the derivatives” (SDS Biotech K.K., priority 2001, dated 2007).
